From patent US20080287443A1, “Treatment of Subgingival Pocket Infections” (priority 2005, published 2008) come the findings set out here.

One series concerns gingival inflammation. Description: Clinical observation of gingival inflammation after delmopinol rinsing. The format is in vivo, human. The following applies: one patient, 0.2% w/v rinse once daily for 14 days. The text has this: (§1) In this example delmopinol was used as a rinse to treat a patient who had been cared for over a 2-year period. They had been diagnosed with Morbus Crohn (Crohn's Disease) and with oral complications presenting as severe gingival lesions and swollen gingiva. They had been treated with antibiotics (Zithromax) in the past to control their oral infections and routinely used Chlorhexidine 0.12% rinse solution to control the recolonization of pathogens. Chlorhexidine is used routinely for the control of gingival infection/inflammations as an adjunct to other oral hygiene measures. There are, however side-effects with Chlorhexidine, i.e. staining of teeth, loss of taste and a burning sensation. The alcohol content in the Chlorhexidine solution may also cause some problems for patients. The potential burning sensation was in this case problematic and the patient was not compliant with Chlorhexidine rinsing. The treatment routine was changed and they were asked to rinse with 0.2% w/v delmopinol once daily for 14 days (instead of chlorhexidine). They had been given a professional cleaning of their teeth prior to rinsing with Delmopinol but no systemic antibiotics were prescribed. Zithromax was used 6 months prior the current treatment. The following clinical observations were made: 2.

In the next series the test system is Treponema denticola. Description: Level of key pathogen in sub-gingival samples. The class given is in vivo. The following applies: sub-gingival samples after 14 day rinse; FIG. 2. The source says:
(§2) FIG. 2 illustrates the reduction of Treponema denticola and Aggregatibacter actinomycetemcomitans after the 14 day course of delmopinol treatment. The treatment routine was changed and they were asked to rinse with 0.2% w/v delmopinol once daily for 14 days (instead of chlorhexidine). They had been given a professional cleaning of their teeth prior to rinsing with Delmopinol but no systemic antibiotics were prescribed. Zithromax was used 6 months prior the current treatment. In addition, a reduction of some key pathogens were found.

The test system of series [1] is Aggregatibacter actinomycetemcomitans. The experiment in a line: Level of key pathogen in sub-gingival samples. The class given is in vivo. The following applies: sub-gingival samples after 14 day rinse; FIG. 2.
Source text: as §2

The conditions of series [2]: human, in vivo.
Source text: as §1, with “1.” for “2.”

A further series has as its system Tannerella forsythia. Description: Level of key pathogen in sub-gingival samples. The class given is in vivo. The following applies: sub-gingival samples after 14 day rinse. The source says: (§3) The treatment routine was changed and they were asked to rinse with 0.2% w/v delmopinol once daily for 14 days (instead of chlorhexidine). They had been given a professional cleaning of their teeth prior to rinsing with Delmopinol but no systemic antibiotics were prescribed. Zithromax was used 6 months prior the current treatment. In addition, a reduction of some key pathogens were found.

For the next series, the system named is Porphyromonas gingivalis. The experiment in a line: Level of key pathogen in sub-gingival samples. The class given is in vivo. The following applies: sub-gingival samples after 14 day rinse.
Source text: as §3

Series [3] has as its system total bacterial load from sub-gingival samples. Description: Total bacterial load in sub-gingival samples from four sub-gingival pockets. The class given is in vivo, human. The conditions noted are these: pockets 13, 23, 37 and 42; after 2 week rinse vs before; FIG. 1. The text has this: FIG. 1 illustrates the sub-gingival reduction in bacterial load, in four selected sub-gingival pockets, after a 14 day course of delmopinol rinsing (once daily); and The treatment routine was changed and they were asked to rinse with 0.2% w/v delmopinol once daily for 14 days (instead of chlorhexidine). They had been given a professional cleaning of their teeth prior to rinsing with Delmopinol but no systemic antibiotics were prescribed. Zithromax was used 6 months prior the current treatment.

Each structure is given as a SMILES string. Entries after “also recorded” stand apart in the source; their conditions may differ.

Regarding `CCCC(CCC)CCCC1COCCN1CCO` (stereo not shown) [delmopinol, 3-(4-propyl-heptyl)-4-(2-hydroxyethyl)morpholine], in the series on gingival inflammation, the “extent of gingival inflammation (bleeding on probing, gingival swelling, ulcerations)” value is “clinically reduced”. The “level of Treponema denticola” value in the series on Treponema denticola is recorded as “significantly reduced”. Besides, the “level of Aggregatibacter actinomycetemcomitans” value in series [1] is given as “significantly reduced; also recorded: eliminated”. Moreover, the “side-effects reported by the patient (staining, burning sensation)” value in series [2] is recorded as “no staining or burning sensation”. Besides, in the series on Tannerella forsythia, the “level of Tannerella forsythia” value is on record as “not reduced”. Moreover, the “level of Porphyromonas gingivalis” value with Porphyromonas gingivalis is recorded as “not reduced”. Further, the “total bacterial load from sub-gingival samples” value in series [3] is recorded as “significant reduction”.
